Reference: US12383692B2, “Systems and methods for synthesis of nitric oxide” (The General Hospital Corporation, priority 2014, dated 2025)

Key:
Assay type in all cases: in vivo
[1] = tested on: anesthetized lamb with acute pulmonary hypertension due to U46619 infusion; assay: Continuous NO generation with respiratory system 10 (NO generator 14) in anesthetized lambs with U46619-induced pulmonary hypertension
Source text: (§1) Animal studies were approved by the Institutional Animal Care and Use Committee of Massachusetts General Hospital (Boston, MA). Eight lambs (New England Ovis, Dover, NH) weighing 32±2 kg were studied. General anesthesia was induced with 5% inhaled isoflurane (1-chloro-2,2,2-trifluoroethyldifluromethyl ether, Baxter, Deerfield, IL) in oxygen delivered via a mask and then maintained with 1-4% isoflurane in 50% oxygen during surgery. After tracheal intubation, the lambs were instrumented with indwelling carotid artery pulmonary artery catheters. All hemodynamic measurements were performed in anesthetized lambs ventilated with a mechanical ventilator (model 7200, Puritan Bennett, Pleasanton, CA) at a tidal volume of […] and rate of 12-15 breaths/min.
(§2) To induce pulmonary hypertension, a potent pulmonary vasoconstrictor U46619 (Cayman Chemical, Ann Arbor, MI), the analog of the endoperoxide prostaglandin H2, was infused intravenously at a rate of 0.8-0.9 μg/kg/min to increase pulmonary arterial pressure (PAP) to 30 mmHg. The mean arterial pressure and PAP were continuously monitored using a Gould 6600 amplifier system (Gould Electronics, Inc., Eastlake, OH). Pulmonary capillary wedge pressure, heart rate, and cardiac output were intermittently measured at baseline, during U46619 infusion, and before and after inhalation of NO generated using either the respiratory system 10, the respiratory system 100, or NO delivered and diluted at the same level from a compressed gas cylinder. Cardiac output was assessed by thermal dilution as the average of three measurements after an intravenous bolus injection of 10 mL of ice-cold saline solution. Pulmonary vascular resistance index (PVRI), as well as cardiac index (CI), were calculated using standard formulae. The gas cylinder contained 500 ppm NO diluted in nitrogen.
The respiratory system 10 was tested with an anesthetized lamb as the patient 11. A baseline (BL) was generated then the NO generator 14 of the respiratory system 10 was triggered to continuously spark (i.e., generate NO) after […] was administered for 30 minutes. The NO was pumped at 5 L/min into the inspiratory line 18. The electrodes 36 were fabricated from iridium-platinum. Once triggered, the controller 33 was configured to spark the electrodes 36 for 4 minutes using the following settings: B=35, N=25, P=240 μs; and H=100 μs, which produced approximately 40 ppm of NO, and then the controller 33 stopped the NO generator 14. The test was performed when 21% oxygen was supplied to the inlet 24 of the NO generator 14, when 50% oxygen was supplied to the inlet 24 of the NO generator 14, and compared with NO supplied at the same concentration to the anesthetized lamb from a gas cylinder. […]

[2] = tested on: anesthetized lamb with acute pulmonary hypertension; assay: Continuous NO generation with respiratory system 100 (NO generator 102) in anesthetized lambs with U46619-induced pulmonary hypertension
Source text: as §1, §2
The respiratory system 100 was tested with an anesthetized lamb as the patient 11. A baseline (BL) was generated then the NO generator 102 of the respiratory system 100 was triggered to continuously spark (i.e., generate NO) after U46619 was administered for 30 minutes. The electrodes 36 were fabricated from iridium-platinum. Once triggered, the controller 33 was configured to spark the electrodes 36 for 4 minutes using the following settings: B=35, N=25, P=240 μs; and H=100 μs, which produced approximately 40 ppm of NO, and then the controller 33 stopped the NO generator 102. The test was performed when 21% oxygen was supplied in the inspiratory line 18, when 50% oxygen was supplied in the inspiratory line 18, and when NO was supplied to the anesthetized lamb diluted from a compressed gas cylinder.
Also, the reduction in PAP and PVRI for the NO produced by the NO generator 102 was similar to the reduction in PAP and PVRI for the NO supplied by the gas cylinder. […]

[3] = tested on: anesthetized lamb with acute pulmonary hypertension; assay: Intermittent NO generation with respiratory system 100 (NO generator 102) in anesthetized lambs with U46619-induced pulmonary hypertension; settings: 4 minutes
Source text: as §1, §2
The respiratory system 100 was tested with an anesthetized lamb as the patient 11. A baseline (BL) was generated then the NO generator 102 of the respiratory system 100 was triggered to intermittently spark (i.e., generate NO) after U46619 was administered for 30 minutes. The electrodes 36 were fabricated from iridium-platinum. The controller 33 was configured to spark the electrodes 36 only during the first 0.8 seconds of inspiration for 4 minutes using the following settings: B=35, N=25, P=240 μs; and H=100 μs and then the controller 33 stopped the NO generator 102, The test was performed when 21% oxygen was supplied in the inspiratory line 18, when 50% oxygen was supplied in the inspiratory line 18, and when NO was supplied to the anesthetized lamb from a gas cylinder.
Also, the reduction in PAP and PVRI for the NO produced by the NO generator 102 was similar to the reduction in PAP and PVRI for NO supplied and diluted from the compressed gas cylinder. […]

[4] = NO produced by NO generator 14, continuous sparking, 4 minutes
[5] = inhaled NO approximately 40 ppm continuously produced by NO generator 14 for 4 minutes, breathing 21% and 50% oxygen
[6] = NO produced by NO generator 102, continuous sparking, 4 minutes
[7] = inhaled NO approximately 40 ppm continuously produced inline by NO generator 102 for 4 minutes, breathing 21% and 50% oxygen
[8] = NO produced by NO generator 102, intermittent sparking
[9] = NO produced by NO generator 102 only during first 0.8 seconds of inspiration, breathing 21% and 50% oxygen

Compound: [N]=O [NO, nitric oxide]
- reduction in PAP compared with NO supplied at the same level by dilution from the gas cylinder [1, 4]: similar
- reduction in PVRI compared with NO supplied at the same level by dilution from the gas cylinder [1, 4]: similar
- mean pulmonary artery pressure (PAP) [1, 5]: rapidly reduced
- pulmonary vascular resistance index (PVRI) [1, 5]: rapidly reduced
- reduction in PAP compared with NO supplied by the gas cylinder [2, 6]: similar
- reduction in PVRI compared with NO supplied by the gas cylinder [2, 6]: similar
- mean pulmonary artery pressure (PAP) [2, 7]: rapidly reduced
- pulmonary vascular resistance index (PVRI) [2, 7]: rapidly reduced
- reduction in PAP compared with NO supplied and diluted from the compressed gas cylinder [3, 8]: similar
- reduction in PVRI compared with NO supplied and diluted from the compressed gas cylinder [3, 8]: similar
- mean pulmonary artery pressure (PAP) [3, 9]: rapidly reduced
- pulmonary vascular resistance index (PVRI) [3, 9]: rapidly reduced
